Measured values taken from patent US20260132128A1, “COMPOUND FOR RECOVERING P53 MUTATION FUNCTION AND USE THEREOF” (SHENZHEN ZHONGGE BIOLOGICAL TECHNOLOGY CO., LTD., priority 2022, published 2026).
pEC50: −log10 of the molar value. Marks after values point to notes of the source that are not given here.

Tests used:
[1] = target: T1, p53 Y220C (Homo sapiens, UniProt P04637, P309S/R273H/Y220C); assay: DNA binding test (HTRF): binding of P53Y220C protein to DNA; assay type: biochemical; settings: HTRF, activation of p53 Y220C (aa 94-312) binding to biotin DNA
T1 construct: a truncated mutant containing only amino acids 94-312 of p53; made in house; host or cells: E. coli
Protocol: (§1) In order to detect the ability of the aforementioned compounds to increase the binding of P53Y220C protein to DNA, the binding activity of p53 Y220C was measured by homogeneous time-resolved fluorescence (HTRF). Recombinant His-tagged p53 Y220C for HTRF measurement was expressed in bacteria E. coli. The recombinant protein was a truncated mutant containing only amino acids 94-312 of p53, and its sequence was […] […] VEGNLR […] TFRh[…] […]. The sense strand of the DNA double strand was 5′-[…]-3′, with a biotin tag at the 5′ end for activity assay, and the antisense strand was 5′-[…]-3′ 40 mL of assay buffer (20 mM Tris HCL, pH 7.5, 50 mM NaCl, 2 mM MgCl2, 0.02% Tween 20, 0.01% BSA, 1 mM DTT) was prepared. 10 mM compound was prepared and subjected to 3-fold dilution to obtain 10 dose gradient dilutions of the compound. 20 nL of the compound was added to a 384-well assay plate (PerkinElmer 6007299) using an Echo 655 Liquid Handler. P53Y220C protein was dissolved in assay buffer to reach a final concentration of 150 nM, and 5 μL thereof was added to each well, and incubated at room temperature for 5 min. DNA was dissolved in assay buffer to reach a final concentration of 150 nM, and 5 μL thereof was added to each well, and incubated at room temperature for 15 min. Anti 6HIS-XL665 (Cisbio 61HISXLB) was dissolved in assay buffer to reach a final concentration of 20 nM, and 5 μL thereof was added to each well. Streptavidin-Eu cryptate (Cisbio 610SAKLA) was dissolved in assay buffer to reach a final concentration of 0.625 nM, and 5 μL thereof was added to each well, and incubated at 27° C. for 1 hour. The plate was then read for signal values on an Envision (PerkinElmer 2105-0020) plate reader at 665 nm and 615 nm, respectively. […] Activation rate={(A-C)/(C)}*100%, A=(signal value at 665 nm/signal value at 615 nm); C=average signal of negative control (wherein, negative control referred to 0.1% DMSO).

[2] = target: T2, p53 Y220C (Homo sapiens, UniProt P04637, Y220C); assay: as above; assay type: biochemical; settings: multiple ratio of EC50 of the compound to the reference compound, DNA binding test
T2 construct: a truncated mutant containing only amino acids 94-312 of p53; made in house; host or cells: E. coli
Protocol: as §1

[3] = system: NUGC-3 cells; assay: NUGC-3 cell proliferation assay (CTG); assay type: cell-based, human; settings: for GI50: 6 days, CTG; for Compound GI50 (nM)/Reference compound GI50 (nM): multiple ratio of GI50 of the compound to the reference compound
Protocol: In order to detect the inhibitory effect of the aforementioned compounds on the proliferation ability of NUGC-3 cells, 250 NUGC-3 cells (Nanjing Cobioer Biosciences Co., Ltd., CBP60492) were seeded into a 384-well plate (Corning 3765), 35 μL per well, and incubated overnight in a constant temperature incubator at 37° C. and 5% CO2. Then, 40 nL of the compound was added to the 384-well plate using an Echo 655 Liquid Handler, with a maximum final concentration of 10 μM, 1:3 serial dilutions, and a total of 10 doses. The culture was performed at 37° C. and 5% CO2 for 6 days. The plate was taken out from the incubator and equilibrated at room temperature for 10 minutes. 20 μL of CTG (Promage G7572) was added to each well of the plate according to the platemap. The plate was centrifuged at 1000 rpm for 1 min. The lysis of cells was induced by mixing on a shaker for 2 min. The plate was centrifuged at 1000 rpm for 1 min. Incubation was performed at room temperature for 10 min to stabilize luminescence signals. Luminescence values were recorded by Envision (PerkinElmer 2105-0020). GraphPad 9.0 was used to fit the inhibition rate and compound concentration into a nonlinear regression curve (dose response-variable slope) to calculate GI50, inhibition rate={1−(A−B)/(C−B)}*100%, A=signal value of compound; B=average signal of blank control; C=average signal of negative control (wherein negative control was 0.1% DMSO).

CNC(=O)c1ccc(NCC#Cc2nc3c(NC4CCC(N5CC6(COC6)C5)CC4F)cccn3c2CC(F)(F)F)c(OC)c1 (single isomer, unassigned) [Compound 35-6h]
pEC50 [1]: > 7.00
Compound EC50 (nM)/Reference compound EC50 (nM) [2]: B (B: EC50 of the reference compound<EC50 of the compound≤3.0*EC50 of the reference compound)
GI50 [3]: 1000 to 5000 nM
Compound GI50 (nM)/Reference compound GI50 (nM) [3]: C (C: GI50 of the compound ≥ 3 * GI50 of the reference compound)

CONC(=O)c1ccc(NCC#Cc2nc3c(NC4CC[C@@H](N5CC6(COC6)C5)C[C@@H]4F)cccn3c2CC(F)(F)F)c(OC)c1 (stereo partly shown) [Compound 53]
Compound EC50 (nM)/Reference compound EC50 (nM) [2]: A (A: EC50 of the compound≤EC50 of the reference compound)
GI50 ([3]; Homo sapiens, NUGC-3, 144 h): < 1000 nM
Compound GI50 (nM)/Reference compound GI50 (nM) [3]: C (C: GI50 of the compound ≥ 3 * GI50 of the reference compound)

COc1cc(C(=O)NCC(F)F)ccc1NCC#Cc1nc2c(NC3CC[C@@H](N4CC5(COC5)C4)C[C@@H]3F)cccn2c1CC(F)(F)F (stereo partly shown) [Compound 55]
Compound EC50 (nM)/Reference compound EC50 (nM) [2]: B (B: EC50 of the reference compound<EC50 of the compound≤3.0*EC50 of the reference compound)
Compound GI50 (nM)/Reference compound GI50 (nM) [3]: C (C: GI50 of the compound ≥ 3 * GI50 of the reference compound)

COc1cc(C(=O)NC2CC(F)C2)ccc1NCC#Cc1nc2c(NC3CC[C@@H](N4CC5(COC5)C4)C[C@@H]3F)cccn2c1CC(F)(F)F (stereo partly shown) [Compound 56]
Compound EC50 (nM)/Reference compound EC50 (nM) [2]: C (C: EC50 of the compound≥3*EC50 of the reference compound)
Compound GI50 (nM)/Reference compound GI50 (nM) [3]: C (C: GI50 of the compound ≥ 3 * GI50 of the reference compound)

CNC(=O)c1ccc(NCC#Cc2nc3c(N[C@@H]4CC[C@@H](N5CC6(CCC6)C5)C[C@@H]4F)cccn3c2CC(F)(F)F)c(OC)c1 [Compound 42]
pEC50 [1]: > 7.00

CNC(=O)c1ccc(NCC#Cc2nc3c(N[C@@H]4CC[C@@H](N5CC6(COC6)C5)C[C@@H]4F)cccn3c2CC(F)(F)F)c(OCF)c1 [Compound 58]
pEC50 [1]: > 7.00

CNC(=O)c1ccc(NCC#Cc2cc3c(N[C@@H]4CCN(C)C[C@@H]4F)ccnn3c2CC(F)(F)F)c(OC)c1 [Compound 85]
Compound EC50 (nM)/Reference compound EC50 (nM) [2]: C (C: EC50 of the compound≥3*EC50 of the reference compound)
Compound GI50 (nM)/Reference compound GI50 (nM) [3]: C (C: GI50 of the compound ≥ 3 * GI50 of the reference compound)

COc1cc(NCC#Cc2nc3c(NC4CCN(C)CC4)cccn3c2CC(F)(F)F)c(NC(C)=O)cn1 [Compound 26]
Compound EC50 (nM)/Reference compound EC50 (nM) [2]: C (C: EC50 of the compound≥3*EC50 of the reference compound)
Compound GI50 (nM)/Reference compound GI50 (nM) [3]: C (C: GI50 of the compound ≥ 3 * GI50 of the reference compound)

CNC(=O)c1ccc(NCC#Cc2nc3c(NC4CC[C@@H](N5CC6(CCCCC6)C5)C[C@@H]4F)cccn3c2CC(F)(F)F)c(OC)c1 (stereo partly shown) [Compound 45]
Compound EC50 (nM)/Reference compound EC50 (nM) [2]: B (B: EC50 of the reference compound<EC50 of the compound≤3.0*EC50 of the reference compound)
Compound GI50 (nM)/Reference compound GI50 (nM) [3]: C (C: GI50 of the compound ≥ 3 * GI50 of the reference compound)

CNC(=O)c1ccc(NCC#Cc2nc3c(N[C@@H]4CCC(N5CCCCC5)C[C@@H]4F)cccn3c2CC(F)(F)F)c(OC)c1 (stereo partly shown) [Compound 43]
Compound EC50 (nM)/Reference compound EC50 (nM) [2]: C (C: EC50 of the compound≥3*EC50 of the reference compound)
Compound GI50 (nM)/Reference compound GI50 (nM) [3]: C (C: GI50 of the compound ≥ 3 * GI50 of the reference compound)

CNC(=O)c1ccc(NCC#Cc2cc3c(NC4CC[C@@H](N5CC6(COC6)C5)C[C@@H]4F)ccnn3c2CC(F)(F)F)c(OC)c1 (stereo partly shown) [Compound 68]
Compound EC50 (nM)/Reference compound EC50 (nM) [2]: C (C: EC50 of the compound≥3*EC50 of the reference compound)
Compound GI50 (nM)/Reference compound GI50 (nM) [3]: C (C: GI50 of the compound ≥ 3 * GI50 of the reference compound)

CNC(=O)c1ccc(NCC#Cc2nc3c(N[C@@H]4CC[C@@H](N5CC6(CCOCC6)C5)C[C@@H]4F)cccn3c2CC(F)(F)F)c(OC)c1 [Compound 46]
pEC50 [1]: > 7.00

CNC(=O)c1ccc(NCC#Cc2nc3c(NC4CC[C@@H](N5CC6(CCOCC6)C5)C[C@@H]4F)cccn3c2CC(F)(F)F)c(OC)c1 (stereo partly shown) [Compound 46]
Compound EC50 (nM)/Reference compound EC50 (nM) [2]: A (A: EC50 of the compound≤EC50 of the reference compound)
GI50 ([3]; Homo sapiens, NUGC-3, 144 h): < 1000 nM
Compound GI50 (nM)/Reference compound GI50 (nM) [3]: B (B: GI50 of the reference compound < GI50 of the compound ≤ 3.0 * GI50 of the reference compound)

CNC(=O)c1ccc(NCC#Cc2nc3c(NC4CC[C@@H](N5CC6(COC6)C5)C[C@@H]4F)cccn3c2CC(F)(F)F)c(OCCF)c1 (stereo partly shown) [Compound 63]
Compound EC50 (nM)/Reference compound EC50 (nM) [2]: B (B: EC50 of the reference compound<EC50 of the compound≤3.0*EC50 of the reference compound)
Compound GI50 (nM)/Reference compound GI50 (nM) [3]: C (C: GI50 of the compound ≥ 3 * GI50 of the reference compound)

CONC(=O)c1ccc(NCC#Cc2nc3c(N[C@@H]4CC[C@@H](N5CC6(COC6)C5)C[C@@H]4F)cccn3c2CC(F)(F)F)c(OC)c1 [Compound 53]
pEC50 [1]: > 7.00

CNC(=O)c1ccc(NCC#Cc2nc3c(NC4CC[C@@H](N5CC6(COC6)C5)C[C@@H]4F)cccn3c2CC(F)(F)F)c(OC2CCC2)c1 (stereo partly shown) [Compound 61]
Compound EC50 (nM)/Reference compound EC50 (nM) [2]: B (B: EC50 of the reference compound<EC50 of the compound≤3.0*EC50 of the reference compound)
Compound GI50 (nM)/Reference compound GI50 (nM) [3]: C (C: GI50 of the compound ≥ 3 * GI50 of the reference compound)

CNC(=O)c1ccc(NCC#Cc2cc3c(NC4CC[C@@H](N5CC6(COC6)C5)C[C@@H]4F)cccn3c2CC(F)(F)F)c(OC)c1 (stereo partly shown) [Compound 65]
Compound EC50 (nM)/Reference compound EC50 (nM) [2]: B (B: EC50 of the reference compound<EC50 of the compound≤3.0*EC50 of the reference compound)
GI50 ([3]; Homo sapiens, NUGC-3, 144 h): < 1000 nM
Compound GI50 (nM)/Reference compound GI50 (nM) [3]: A (A: GI50 of the compound ≤ GI50 of the reference compound)

CNC(=O)c1ccc(NCC#Cc2nc3c(NC4CC[C@@H](N5CC6(COC6)C5)C[C@@H]4F)cccn3c2CC(F)(F)F)c(OC2COC2)c1 (stereo partly shown) [Compound 60]
Compound EC50 (nM)/Reference compound EC50 (nM) [2]: B (B: EC50 of the reference compound<EC50 of the compound≤3.0*EC50 of the reference compound)
Compound GI50 (nM)/Reference compound GI50 (nM) [3]: C (C: GI50 of the compound ≥ 3 * GI50 of the reference compound)

CNC(=O)c1ccc(NCC#Cc2nc3c(N[C@@H]4CC[C@@H](N5CC6(COC6)C5)C[C@@H]4F)cccn3c2CC(F)(F)F)c(OC2CC2)c1 [Compound 57]
pEC50 [1]: > 7.00

CNC(=O)c1ccc(NCC#Cc2nc3c(N[C@@H]4CC[C@@H](N5CCCC5)C[C@@H]4F)cccn3c2CC(F)(F)F)c(OC)c1 [Compound 41]
pEC50 [1]: > 7.00

CNC(=O)c1ccc(NCC#Cc2nc3c(NC4CC[C@@H](N5CC6(COC6)C5)C[C@@H]4F)cccn3c2CC(F)(F)F)c(OCC(F)F)c1 (stereo partly shown) [Compound 62]
Compound EC50 (nM)/Reference compound EC50 (nM) [2]: B (B: EC50 of the reference compound<EC50 of the compound≤3.0*EC50 of the reference compound)
Compound GI50 (nM)/Reference compound GI50 (nM) [3]: C (C: GI50 of the compound ≥ 3 * GI50 of the reference compound)

CNC(=O)c1ccc(NCC#Cc2nc3c(NC4CC[C@@H](N5CCCC5)C[C@@H]4F)cccn3c2CC(F)(F)F)c(OC)c1 (stereo partly shown) [Compound 41]
Compound EC50 (nM)/Reference compound EC50 (nM) [2]: B (B: EC50 of the reference compound<EC50 of the compound≤3.0*EC50 of the reference compound)
GI50 ([3]; Homo sapiens, NUGC-3, 144 h): < 1000 nM
Compound GI50 (nM)/Reference compound GI50 (nM) [3]: B (B: GI50 of the reference compound < GI50 of the compound ≤ 3.0 * GI50 of the reference compound)

CNC(=O)c1ccc(NCC#Cc2nc3c(NC4CC[C@@H](N5CC6(COC6)C5)C[C@@H]4F)cccn3c2CC(F)(F)F)c(OCC(F)(F)F)c1 (stereo partly shown) [Compound 59]
Compound EC50 (nM)/Reference compound EC50 (nM) [2]: B (B: EC50 of the reference compound<EC50 of the compound≤3.0*EC50 of the reference compound)
Compound GI50 (nM)/Reference compound GI50 (nM) [3]: C (C: GI50 of the compound ≥ 3 * GI50 of the reference compound)
